Measured values from article PMC5540273, “Progress towards a public chemogenomic set for protein kinases and a call for contributions” (PLoS ONE, 2017).

The molecules below were run against CDK7 (Homo sapiens, UniProt P50613) (assay: KINOMEscan competition binding). Conditions: read-out: %Inh CDK7.
Sequence of CDK7 (P50613 whole entry): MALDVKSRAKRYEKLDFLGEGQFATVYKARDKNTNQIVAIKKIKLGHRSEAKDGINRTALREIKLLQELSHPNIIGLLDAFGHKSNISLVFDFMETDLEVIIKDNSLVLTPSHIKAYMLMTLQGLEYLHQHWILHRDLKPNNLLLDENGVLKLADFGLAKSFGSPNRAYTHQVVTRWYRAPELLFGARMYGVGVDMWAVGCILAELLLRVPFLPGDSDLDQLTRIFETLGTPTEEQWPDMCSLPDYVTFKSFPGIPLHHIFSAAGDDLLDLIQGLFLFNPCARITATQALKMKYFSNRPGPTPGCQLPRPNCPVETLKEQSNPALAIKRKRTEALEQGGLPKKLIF

| SMILES | inhibition at 1 µM [%] |
| --- | --- |
| O=c1cc(N2CCOCC2)nc2n(Cc3cccc(Cl)c3Cl)c(C3CC3)nn12 [UNC10225469A] | 5 |
| Cn1cc(-c2cnc(N)c3c(-c4ccc5c(c4)CCN5C(=O)Cc4ccccc4)csc23)cn1 [UNC10225012A] | 19 |
| CS(=O)(=O)Cc1ccc(Nc2nccc(-c3c(-c4cccc(NC(=O)C5CCCCC5)c4)nn4ncccc34)n2)cc1 [UNC10225159A] | 6 |
| COc1cccc(OC)c1C(=O)Nc1cccc(-c2nn3ccccc3c2-c2ccnc(Nc3cccc(F)c3)n2)c1 [UNC10225310A] | 22 |
| Cc1ccc(NC(=O)Nc2cccc(C(F)(F)F)c2)cc1 [UNC10225187A] | 12 |

What follows are molecules tested against T1, ADCK4 (Homo sapiens, UniProt Q96D53) (assay: KINOMEscan competition binding). Conditions: read-out: %Inh ADCK4.
T1 sequence (Q96D53 1-544): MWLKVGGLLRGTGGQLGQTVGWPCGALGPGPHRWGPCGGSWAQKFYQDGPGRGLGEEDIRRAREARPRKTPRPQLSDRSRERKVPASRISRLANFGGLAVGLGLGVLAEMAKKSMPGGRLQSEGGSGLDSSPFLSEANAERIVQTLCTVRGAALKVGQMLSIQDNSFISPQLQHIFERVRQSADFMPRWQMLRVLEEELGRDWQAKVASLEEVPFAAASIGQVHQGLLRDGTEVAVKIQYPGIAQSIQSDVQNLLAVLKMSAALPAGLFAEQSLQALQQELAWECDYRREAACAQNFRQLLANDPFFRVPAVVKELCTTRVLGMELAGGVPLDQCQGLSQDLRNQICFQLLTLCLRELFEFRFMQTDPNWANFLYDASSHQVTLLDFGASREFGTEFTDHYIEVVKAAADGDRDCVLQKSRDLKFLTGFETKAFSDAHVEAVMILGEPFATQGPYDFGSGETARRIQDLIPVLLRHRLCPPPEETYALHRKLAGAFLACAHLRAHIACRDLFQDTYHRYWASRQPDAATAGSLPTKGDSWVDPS

| SMILES | inhibition at 1 µM [%] |
| --- | --- |
| O=c1cc(N2CCOCC2)nc2n(Cc3cccc(Cl)c3Cl)c(C3CC3)nn12 [UNC10225469A] | 0 |
| Cn1cc(-c2cnc(N)c3c(-c4ccc5c(c4)CCN5C(=O)Cc4ccccc4)csc23)cn1 [UNC10225012A] | 0 |
| CS(=O)(=O)Cc1ccc(Nc2nccc(-c3c(-c4cccc(NC(=O)C5CCCCC5)c4)nn4ncccc34)n2)cc1 [UNC10225159A] | 0 |
| COc1cccc(OC)c1C(=O)Nc1cccc(-c2nn3ccccc3c2-c2ccnc(Nc3cccc(F)c3)n2)c1 [UNC10225310A] | 0 |
| Cc1ccc(NC(=O)Nc2cccc(C(F)(F)F)c2)cc1 [UNC10225187A] | 0 |

What follows are molecules tested against CAMK1 (Homo sapiens, UniProt Q14012) (assay: KINOMEscan competition binding). Conditions: read-out: %Inh CAMK1.
Sequence of CAMK1 (Q14012 whole entry): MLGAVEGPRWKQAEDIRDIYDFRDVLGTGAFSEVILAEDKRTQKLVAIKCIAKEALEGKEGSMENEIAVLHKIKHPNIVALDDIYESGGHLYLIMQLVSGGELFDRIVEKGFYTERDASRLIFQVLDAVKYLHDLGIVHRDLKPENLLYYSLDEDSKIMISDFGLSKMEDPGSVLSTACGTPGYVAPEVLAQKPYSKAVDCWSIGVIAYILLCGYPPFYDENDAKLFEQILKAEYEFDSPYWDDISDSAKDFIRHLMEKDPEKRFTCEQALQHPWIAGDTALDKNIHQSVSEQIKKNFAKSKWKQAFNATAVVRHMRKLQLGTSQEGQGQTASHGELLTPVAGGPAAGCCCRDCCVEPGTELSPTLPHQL

| SMILES | inhibition at 1 µM [%] |
| --- | --- |
| O=c1cc(N2CCOCC2)nc2n(Cc3cccc(Cl)c3Cl)c(C3CC3)nn12 [UNC10225469A] | 0 |
| Cn1cc(-c2cnc(N)c3c(-c4ccc5c(c4)CCN5C(=O)Cc4ccccc4)csc23)cn1 [UNC10225012A] | 0 |
| CS(=O)(=O)Cc1ccc(Nc2nccc(-c3c(-c4cccc(NC(=O)C5CCCCC5)c4)nn4ncccc34)n2)cc1 [UNC10225159A] | 0 |
| COc1cccc(OC)c1C(=O)Nc1cccc(-c2nn3ccccc3c2-c2ccnc(Nc3cccc(F)c3)n2)c1 [UNC10225310A] | 19 |
| Cc1ccc(NC(=O)Nc2cccc(C(F)(F)F)c2)cc1 [UNC10225187A] | 7 |

These molecules were tested against CHEK2 (Homo sapiens, UniProt O96017) (assay: KINOMEscan competition binding). Conditions: read-out: %Inh CHEK2.
Sequence of CHEK2 (O96017 whole entry): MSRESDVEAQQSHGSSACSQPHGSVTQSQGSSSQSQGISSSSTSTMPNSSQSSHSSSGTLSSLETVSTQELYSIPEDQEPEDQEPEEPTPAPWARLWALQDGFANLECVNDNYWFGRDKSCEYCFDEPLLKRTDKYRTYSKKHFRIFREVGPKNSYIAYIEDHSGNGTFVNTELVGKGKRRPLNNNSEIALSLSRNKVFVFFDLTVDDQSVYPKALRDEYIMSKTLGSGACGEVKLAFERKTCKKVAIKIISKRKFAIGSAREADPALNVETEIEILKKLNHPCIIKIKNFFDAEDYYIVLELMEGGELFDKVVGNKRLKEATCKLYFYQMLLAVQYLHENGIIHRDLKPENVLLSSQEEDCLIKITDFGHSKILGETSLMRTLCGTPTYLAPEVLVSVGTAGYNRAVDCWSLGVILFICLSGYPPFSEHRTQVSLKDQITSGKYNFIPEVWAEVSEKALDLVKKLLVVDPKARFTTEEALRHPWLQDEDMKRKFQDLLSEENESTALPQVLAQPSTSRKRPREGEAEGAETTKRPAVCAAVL

| SMILES | inhibition at 1 µM [%] |
| --- | --- |
| O=c1cc(N2CCOCC2)nc2n(Cc3cccc(Cl)c3Cl)c(C3CC3)nn12 [UNC10225469A] | 0 |
| Cn1cc(-c2cnc(N)c3c(-c4ccc5c(c4)CCN5C(=O)Cc4ccccc4)csc23)cn1 [UNC10225012A] | 0 |
| CS(=O)(=O)Cc1ccc(Nc2nccc(-c3c(-c4cccc(NC(=O)C5CCCCC5)c4)nn4ncccc34)n2)cc1 [UNC10225159A] | 0 |
| COc1cccc(OC)c1C(=O)Nc1cccc(-c2nn3ccccc3c2-c2ccnc(Nc3cccc(F)c3)n2)c1 [UNC10225310A] | 0 |
| Cc1ccc(NC(=O)Nc2cccc(C(F)(F)F)c2)cc1 [UNC10225187A] | 0 |

Each molecule was assayed against INSRR (Homo sapiens, UniProt P14616) (assay: KINOMEscan competition binding). Conditions: read-out: %Inh INSRR.
Sequence of INSRR (P14616 27-1297): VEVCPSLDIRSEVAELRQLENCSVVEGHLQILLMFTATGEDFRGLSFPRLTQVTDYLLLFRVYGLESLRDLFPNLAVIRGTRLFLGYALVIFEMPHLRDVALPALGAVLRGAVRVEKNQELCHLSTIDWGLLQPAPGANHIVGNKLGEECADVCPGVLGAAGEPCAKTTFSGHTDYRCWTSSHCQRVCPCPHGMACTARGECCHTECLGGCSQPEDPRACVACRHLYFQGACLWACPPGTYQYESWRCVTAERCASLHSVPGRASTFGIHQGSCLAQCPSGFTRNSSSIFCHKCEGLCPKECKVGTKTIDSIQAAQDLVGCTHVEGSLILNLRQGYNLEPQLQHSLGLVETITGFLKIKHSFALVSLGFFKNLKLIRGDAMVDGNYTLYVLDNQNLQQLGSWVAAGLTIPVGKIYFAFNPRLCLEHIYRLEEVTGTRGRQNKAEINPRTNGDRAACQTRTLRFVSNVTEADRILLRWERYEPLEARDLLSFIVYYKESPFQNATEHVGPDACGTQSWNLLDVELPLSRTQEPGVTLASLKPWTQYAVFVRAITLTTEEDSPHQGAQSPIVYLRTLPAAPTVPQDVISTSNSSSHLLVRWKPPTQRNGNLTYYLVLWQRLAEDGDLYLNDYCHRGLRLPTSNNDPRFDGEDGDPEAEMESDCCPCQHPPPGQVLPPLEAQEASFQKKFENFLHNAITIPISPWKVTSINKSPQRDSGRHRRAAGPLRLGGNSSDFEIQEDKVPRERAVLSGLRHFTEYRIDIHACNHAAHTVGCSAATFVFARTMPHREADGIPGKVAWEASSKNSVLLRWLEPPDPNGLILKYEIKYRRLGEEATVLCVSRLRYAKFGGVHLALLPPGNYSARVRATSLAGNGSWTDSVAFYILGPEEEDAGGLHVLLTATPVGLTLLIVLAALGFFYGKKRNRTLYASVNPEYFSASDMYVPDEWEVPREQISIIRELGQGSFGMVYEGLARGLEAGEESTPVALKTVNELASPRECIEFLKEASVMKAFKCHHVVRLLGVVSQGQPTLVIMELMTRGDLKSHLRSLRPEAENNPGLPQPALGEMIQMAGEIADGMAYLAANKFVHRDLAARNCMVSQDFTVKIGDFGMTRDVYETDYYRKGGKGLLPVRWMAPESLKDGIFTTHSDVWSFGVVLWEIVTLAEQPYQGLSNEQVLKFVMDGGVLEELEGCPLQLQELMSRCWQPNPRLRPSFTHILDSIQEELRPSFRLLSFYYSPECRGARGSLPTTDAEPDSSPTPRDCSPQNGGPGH

| SMILES | inhibition at 1 µM [%] |
| --- | --- |
| O=c1cc(N2CCOCC2)nc2n(Cc3cccc(Cl)c3Cl)c(C3CC3)nn12 [UNC10225469A] | 0 |
| Cn1cc(-c2cnc(N)c3c(-c4ccc5c(c4)CCN5C(=O)Cc4ccccc4)csc23)cn1 [UNC10225012A] | 13 |
| CS(=O)(=O)Cc1ccc(Nc2nccc(-c3c(-c4cccc(NC(=O)C5CCCCC5)c4)nn4ncccc34)n2)cc1 [UNC10225159A] | 20 |
| COc1cccc(OC)c1C(=O)Nc1cccc(-c2nn3ccccc3c2-c2ccnc(Nc3cccc(F)c3)n2)c1 [UNC10225310A] | 0 |
| Cc1ccc(NC(=O)Nc2cccc(C(F)(F)F)c2)cc1 [UNC10225187A] | 0 |

Each molecule was assayed against T2, AXL (Homo sapiens, UniProt P30530) (assay: KINOMEscan competition binding). Conditions: read-out: %Inh AXL.
T2 sequence (P30530 26-894): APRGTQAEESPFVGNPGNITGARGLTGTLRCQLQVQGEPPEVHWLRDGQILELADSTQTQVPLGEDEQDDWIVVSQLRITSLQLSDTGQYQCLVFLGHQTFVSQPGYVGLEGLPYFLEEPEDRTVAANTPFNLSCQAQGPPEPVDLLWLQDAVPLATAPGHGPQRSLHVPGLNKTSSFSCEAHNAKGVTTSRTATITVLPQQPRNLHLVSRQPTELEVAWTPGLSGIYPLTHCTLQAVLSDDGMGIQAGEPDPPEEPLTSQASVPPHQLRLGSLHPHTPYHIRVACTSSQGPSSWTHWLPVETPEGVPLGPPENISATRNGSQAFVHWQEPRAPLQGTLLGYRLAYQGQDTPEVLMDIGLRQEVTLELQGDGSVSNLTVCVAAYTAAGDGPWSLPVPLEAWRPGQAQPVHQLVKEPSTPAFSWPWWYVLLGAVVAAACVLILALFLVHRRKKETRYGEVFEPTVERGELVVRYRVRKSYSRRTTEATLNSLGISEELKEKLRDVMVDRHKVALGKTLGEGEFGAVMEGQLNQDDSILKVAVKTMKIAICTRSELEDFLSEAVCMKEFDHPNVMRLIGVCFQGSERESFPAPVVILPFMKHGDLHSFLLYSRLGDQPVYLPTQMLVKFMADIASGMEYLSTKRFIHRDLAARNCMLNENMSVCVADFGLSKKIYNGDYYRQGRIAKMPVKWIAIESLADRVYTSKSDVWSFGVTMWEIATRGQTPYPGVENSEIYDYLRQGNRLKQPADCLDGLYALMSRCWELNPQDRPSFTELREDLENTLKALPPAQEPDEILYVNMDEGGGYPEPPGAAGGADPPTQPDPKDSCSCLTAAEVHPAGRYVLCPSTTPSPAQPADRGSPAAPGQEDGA

| SMILES | inhibition at 1 µM [%] |
| --- | --- |
| O=c1cc(N2CCOCC2)nc2n(Cc3cccc(Cl)c3Cl)c(C3CC3)nn12 [UNC10225469A] | 3 |
| Cn1cc(-c2cnc(N)c3c(-c4ccc5c(c4)CCN5C(=O)Cc4ccccc4)csc23)cn1 [UNC10225012A] | 95.9 |
| CS(=O)(=O)Cc1ccc(Nc2nccc(-c3c(-c4cccc(NC(=O)C5CCCCC5)c4)nn4ncccc34)n2)cc1 [UNC10225159A] | 18 |
| COc1cccc(OC)c1C(=O)Nc1cccc(-c2nn3ccccc3c2-c2ccnc(Nc3cccc(F)c3)n2)c1 [UNC10225310A] | 30 |
| Cc1ccc(NC(=O)Nc2cccc(C(F)(F)F)c2)cc1 [UNC10225187A] | 0 |

The molecules below were run against T3, IKK-epsilon (Homo sapiens, UniProt Q14164) (assay: KINOMEscan competition binding). Conditions: read-out: %Inh IKK-epsilon.
T3 sequence (Q14164 1-716): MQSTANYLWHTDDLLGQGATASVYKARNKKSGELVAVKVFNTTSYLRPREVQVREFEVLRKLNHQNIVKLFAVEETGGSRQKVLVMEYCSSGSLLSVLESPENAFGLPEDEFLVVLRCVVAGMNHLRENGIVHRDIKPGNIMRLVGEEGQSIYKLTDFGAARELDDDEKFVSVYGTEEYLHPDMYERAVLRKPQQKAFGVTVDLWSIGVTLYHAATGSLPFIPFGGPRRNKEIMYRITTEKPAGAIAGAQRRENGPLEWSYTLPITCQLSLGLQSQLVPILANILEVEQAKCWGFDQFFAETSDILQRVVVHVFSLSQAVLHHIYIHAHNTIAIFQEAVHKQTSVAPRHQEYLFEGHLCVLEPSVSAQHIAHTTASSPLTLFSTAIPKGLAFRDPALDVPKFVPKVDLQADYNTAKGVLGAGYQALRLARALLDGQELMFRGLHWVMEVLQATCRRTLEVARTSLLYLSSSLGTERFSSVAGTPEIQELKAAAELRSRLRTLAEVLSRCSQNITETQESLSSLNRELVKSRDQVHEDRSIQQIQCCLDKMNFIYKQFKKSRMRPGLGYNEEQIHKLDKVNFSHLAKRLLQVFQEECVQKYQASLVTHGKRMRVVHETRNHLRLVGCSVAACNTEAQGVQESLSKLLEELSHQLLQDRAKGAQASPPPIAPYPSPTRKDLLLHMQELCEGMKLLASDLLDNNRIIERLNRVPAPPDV

| SMILES | inhibition at 1 µM [%] |
| --- | --- |
| O=c1cc(N2CCOCC2)nc2n(Cc3cccc(Cl)c3Cl)c(C3CC3)nn12 [UNC10225469A] | 0 |
| Cn1cc(-c2cnc(N)c3c(-c4ccc5c(c4)CCN5C(=O)Cc4ccccc4)csc23)cn1 [UNC10225012A] | 59 |
| CS(=O)(=O)Cc1ccc(Nc2nccc(-c3c(-c4cccc(NC(=O)C5CCCCC5)c4)nn4ncccc34)n2)cc1 [UNC10225159A] | 32 |
| COc1cccc(OC)c1C(=O)Nc1cccc(-c2nn3ccccc3c2-c2ccnc(Nc3cccc(F)c3)n2)c1 [UNC10225310A] | 4 |
| Cc1ccc(NC(=O)Nc2cccc(C(F)(F)F)c2)cc1 [UNC10225187A] | 0 |
